According to patent publication US20250084372A1, “IN VITRO DERIVATION OF GONADAL SOMATIC CELLS” (Conception Bisosciences, Inc., priority 2020, published 2025):

Columns and labels:
[1] = tested on: second intermediate cell population (LHX1, PAX2, WT1, RUNX1); experiment: Intermediate mesoderm marker expression in second intermediate cell population; type: cell-based, human; settings: increasing concentration; for expression of intermediate mesoderm markers WT1 and RUNX1: CHIR 0.5, 1 or 2 μM, RA or TTNPB 0, 0.1, 0.5 or 1 μM
Description: The cell suspension was centrifuged at 1200 RPM for 5 min and the supernatant was discarded. The centrifuged cells were resuspended in 1 ml of GK2 medium and the cells were counted. […] The plates were cultured for 24 hours, and then 80% of the media was replaced with fresh IM-induction media without the ROCK inhibitor. 80% of the media was again replaced every other day until the cells became confluent (about 5-6 days). Once the cells were confluent, the cells were passaged to fresh fibronectin-coated 24-well plates, with at least 50,000 cells per well after passage (25k/cm^2).

[2] = tested on: second intermediate cell population; experiment: Induction of second intermediate (IM) cell population: survival and morphology, phase contrast; type: cell-based, human; settings: 5 days in IM-induction media, increasing concentration
Description: The cell suspension was centrifuged at 1200 RPM for 5 min and the supernatant was discarded. The centrifuged cells were resuspended in 1 ml of GK2 medium and the cells were counted. About 720,000 cells (from 24 well plate: 30,000 cells per well) were added to 12 mL IM-induction medium (as prepared in Table 10, but without the ROCK inhibitor). 12 μL ROCK inhibitor Y-27632 (1000×) or 36 μL of CET (3:1000) (final concentration of CET in media: 50 nM Chroman1, 5 μM Emricasan, 0.7 μM Trans-ISRIB) was added to obtain 60,000 cells/mL. 500 μL of the solution was placed in each well of fibronectin coated 24-well plate (about 30,000 cells/well). The plates were cultured for 24 hours, and then 80% of the media was replaced with fresh IM-induction media without the ROCK inhibitor. 80% of the media was again replaced every other day until the cells became confluent (about 5-6 days). Once the cells were confluent, the cells were passaged to fresh fibronectin-coated 24-well plates, with at least 50,000 cells per well after passage (25k/cm^2). About 4-5 million second intermediate cells were produced per 24 well plate. […]

[3] = tested on: ovarian somatic cells (OSCs); experiment: RA concentration and exposure gradient during OSC induction, FOXL2 and KRT19 staining; settings: 10-step gradient 0 μM to 10 μM
[4] = tested on: ovarian somatic cells (OSCs); experiment: OSC induction with different FGF family members, marker expression; type: cell-based, human; settings: 10 ng/mL FGF in granulosa double medium
Description: Fibroblast growth factors (FGFs) are a large family of proteins that are important for signaling events in a wide variety of processes. […] Briefly, gonadal cells were induced in granulosa doublemedium comprising different FGFs, and the expression of bipotential gonadal markers as well as that of granulosa markers were measured in the resulting cells.
The replated cells from the second intermediate population were incubated in the granulosa double medium (also referred to as gonadal induction medium or OSC induction medium) according to Table 18, with the same concentration of either FGF2, 9, 10, 16, 17, 18 or 19. The expression of bipotential gonadal markers (WT1, LHX9, GADD45G and GATA4) as well as granulosa markers (FOXL2, NR1H4 and KITLG) were measured in the resulting cells.

OSCs = tested on: OSCs
Description: To assay whether the gonadal somatic cells (such as the ovarian somatic cells—OSCs) generated from pluripotent stem cells are functional, expression of CYP19A1 was assayed by qPCR, and steroidogenesis was measured by ELISA for estradiol.
A first intermediate cell population expressing markers representative of mesoderm, and a second intermediate cell population expressing markers representative of intermediate mesoderm, and the OSCs were generated according to the protocols described in Example 6.

[5] = tested on: ovarian somatic cells (OSCs); experiment: Concentration titration of BMP4, follistatin and FGF2 in OSC induction, qPCR for GATA4 and FOXL2; type: cell-based, human; settings: BMP4 20 ng/mL, follistatin removed
Description: Various concentration titrations of BMP4, Follistatin and FGF were tested in OSC induction, and the resulting cells were examined for expression of bipotential gonadal markers as well as that of granulosa markers.
The OSCs were induced based on the protocols described in Example 6, but with various concentrations of BMP4. Follistatin and FGF tested.
The OSC induction conditions were first tested by varying the BMP4 concentration. […] The gene expression of resulting cells was tested by qPCR for bi-potential gonadal cell markers (GATA4) as well as for granulosa cell markers (FOXL2) (FIGS. 12A and 12B respectively). Expression of GATA4 increased with higher BMP4 concentration, and FOXL2 expression appeared to peak at 10 ng/ml of BMP4 under the conditions tested.
Four different concentrations of follistatin were then tested in OSC induction, with the concentration of BMP4 kept constant at 20 ng/ml as previously described. The gene expression of resulting cells was tested by qPCR for bi-potential gonadal cell markers (GATA4) as well as for granulosa cell markers (FOXL2) (FIGS. 12C and 12D respectively). […] The generation of mature OSCs were also examined by FOXL2 expression. […] In subsequent experiments, OSC induction in the absence or at lower concentrations of follistatin was further explored. […]

**Q.** With `C/C(=C\c1ccc(C(=O)O)cc1)c1ccc2c(c1)C(C)(C)CCC2(C)C` [TTNPB] as the compound, how does the “expression of intermediate mesoderm markers WT1 and RUNX1” value [1] read?
**A.** increasing expression

**Q.** What about the “cell survival and cellular morphology of second intermediate cell population” value [2] of the same compound?
**A.** increased cell survival and uniform cellular morphology

**Q.** Which “expression of intermediate mesoderm markers WT1 and RUNX1” value [1] does the source give for `Cc1c[nH]c(-c2cnc(NCCNc3ccc(C#N)cn3)nc2-c2ccc(Cl)cc2Cl)n1` [CHIR, CHIR99021] here?
**A.** increased expression

**Q.** What about the “expression of intermediate mesoderm markers LHX1 and PAX2” value ([1]; CHIR 1, 2 or 3 μM, RA 50 nM, 100 nM, 500 nM or 1 μM) of the same compound?
**A.** increased expression

**Q.** How did the “RA concentration at which KRT19 staining peaked” value [3] turn out when `CC1=C(/C=C/C(C)=C/C=C/C(C)=C/C(=O)O)C(C)(C)CCC1` [RA, retinoic acid] was run?
**A.** around 500 nM

**Q.** How did the “expression of bipotential gonadal markers (WT1, LHX9, GADD45G, GATA4) compared to FGF2” value [4] turn out when “FGF16: fibroblast growth factor family member” was run?
**A.** comparable or higher

**Q.** And the “expression of granulosa markers (FOXL2, NR1H4, KITLG) compared to corresponding medium” value [4]?
**A.** comparable

**Q.** For `C[C@]12CCC(=O)C[C@@H]1CC[C@@H]1[C@@H]2CC[C@]2(C)[C@@H](O)CC[C@@H]12` [dHT, dihydroxy-testosterone], which “estradiol levels in the media, 48 hrs compared to 24-hr incubation” value (OSCs; 50 ng/ml, 48 hrs) is on record?
**A.** further increase

**Q.** What about the “estradiol levels in the media” value (OSCs; 24-hr incubation, higher concentration) of the same compound?
**A.** increased

**Q.** How did the “FGF2 concentration at which GATA4 and FOXL2 expression reach saturation” value [5] turn out when FGF2 was run?
**A.** 20 ng/mL

**Q.** What does the source list for “FGF19: fibroblast growth factor family member”?
**A.** expression of bipotential gonadal markers (WT1, LHX9, GADD45G, GATA4) compared to FGF2 [4]: comparable or higher; expression of granulosa markers (FOXL2, NR1H4, KITLG) compared to corresponding medium [4]: comparable
